Measurements as given in PubChem BioAssay AID1159588 (Gregory J. Crowther, 2016).

target: Calcium-dependent protein kinase 4 (Plasmodium falciparum (isolate 3D7)) (UniProt Q8IBS5); test: PfCDPK4 kinase inhibitors, biochemical, TCAMS library (AID 1159588); conditions: recombinant PfCDPK4, Kinase-Glo ATP depletion luminescence
Sequence (Q8IBS5 whole entry, looked up): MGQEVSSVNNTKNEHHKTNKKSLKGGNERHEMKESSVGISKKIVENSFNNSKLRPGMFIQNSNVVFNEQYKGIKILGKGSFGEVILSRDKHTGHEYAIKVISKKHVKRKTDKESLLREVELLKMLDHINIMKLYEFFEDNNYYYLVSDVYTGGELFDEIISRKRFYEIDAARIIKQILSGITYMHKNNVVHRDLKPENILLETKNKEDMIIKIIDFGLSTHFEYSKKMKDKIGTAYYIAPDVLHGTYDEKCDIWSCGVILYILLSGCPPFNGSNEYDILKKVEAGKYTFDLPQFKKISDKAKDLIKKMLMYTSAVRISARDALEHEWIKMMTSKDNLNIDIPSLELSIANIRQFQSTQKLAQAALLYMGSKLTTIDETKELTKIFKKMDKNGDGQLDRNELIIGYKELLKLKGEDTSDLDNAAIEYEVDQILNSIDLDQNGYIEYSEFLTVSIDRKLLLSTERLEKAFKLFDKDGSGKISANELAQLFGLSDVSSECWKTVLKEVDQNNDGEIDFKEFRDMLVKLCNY

| SMILES | IC50 |
| --- | --- |
| O=C(Nc1ccccc1)Nc1cccc(-c2nn3c(OCCN4CCCC4)cccc3c2-c2ccncc2)c1 | 775 nM |
| Cc1csc(-c2ncc(OC[C@@H](N)Cc3ccccc3)cc2-c2ccc3n[nH]c(C)c3c2)c1 | 420 nM |
| CCn1c(-c2nonc2N)nc2c(-c3ccccc3)ncc(OCCCCNCCc3ncc[nH]3)c21 | 43 nM |
| CCn1c(-c2nonc2N)nc2c(-c3cccc(NC(=O)Nc4ccccc4Cl)c3)ncc(OCCCN)c21 | 138 nM |
| CCN(CC)CCNC(=O)c1ccc(N=Cc2c(O)[nH]c3ccc(S(=O)(=O)Cc4c(Cl)cccc4Cl)cc23)cc1 | 73 nM |
| O=C(Nc1cccc(-c2nn3ncccc3c2-c2ccnc(Nc3cccc(-c4cnco4)c3)n2)c1)c1c(F)cccc1F | 145 nM |
| O=C(NCC(c1ccc(C(F)(F)F)cc1)N1CCCC1)c1cc(-c2ccncc2)c(-c2cccc(O)c2)o1 (stereo not given) | 178 nM |
| CC(=O)Nc1cccc(Nc2nccc(-c3c(-c4cccc(NC(=O)c5c(F)cccc5F)c4)nn4ncccc34)n2)c1 | 26 nM |
| CCn1c(-c2nonc2N)nc2c(-c3cccc(NC(=O)Nc4ccccc4OC)c3)ncc(OCCCN)c21 | 706 nM |
| CC(C)(CN)c1cc(-c2ccc(Cl)c(O)c2)c(-c2ccncc2)o1 | 433 nM |
| CCn1c(-c2nonc2N)nc2c(-c3cccc(NC(=O)Nc4cccc(C(F)(F)F)c4)c3)ncc(OCCCN)c21 | 342 nM |
| O=C(Nc1cccc(-c2nn3ccccc3c2-c2ccnc(Nc3ccc(-c4ccn[nH]4)cc3)n2)c1)c1c(F)cccc1F | 307 nM |
| O=C(Nc1cccc(-c2nn3ccccc3c2-c2ccnc(Nc3ccc(C(=O)N4CCOCC4)cc3)n2)c1)c1c(F)cccc1F | 311 nM |
| CN1CCN(c2ccc(Nc3nccc(-c4c(-c5cccc(NC(=O)c6c(F)cccc6F)c5)nn5ccccc45)n3)cc2)CC1 | 75 nM |
| COc1cc(Nc2nccc(-c3c(-c4cccc(NC(=O)c5c(F)cccc5F)c4)nn4ncccc34)n2)cc(OC)c1OC | 45 nM |
| COCCOc1ccc(Nc2nccc(-c3c(-c4cccc(NC(=O)c5c(F)cccc5F)c4)nn4ccccc34)n2)cc1Cl | 853 nM |
| CCn1c(-c2nonc2N)nc2c(-c3cccc(Cl)c3)ncc(OCCCNCCc3cnc[nH]3)c21 | 46 nM |
| Cc1[nH]nc2ccc(-c3cc(OC[C@@H](N)Cc4ccccc4)cnc3-c3cc4ccccc4s3)cc12 | 563 nM |
| COc1cc(Nc2nccc(-c3c(-c4cccc(NC(=O)c5c(F)cccc5F)c4)nn4ccccc34)n2)cc(OC)c1OC | 77 nM |
| O=C(Nc1cccc(-c2nn3ccccc3c2-c2ccnc(Nc3ccc(NCCCN4CCOCC4)c(F)c3)n2)c1)c1c(F)cccc1F | 315 nM |
| NCC(NC(=O)c1ccc(-c2c[nH]c3ncccc23)s1)c1ccccc1 (stereo not given) | 473 nM |
| CCN(CC)CCCOc1ccc(Nc2nccc(-c3c(-c4cccc(NC(=O)c5c(F)cccc5F)c4)nn4ccccc34)n2)cc1F | 86 nM |
| CCn1c(-c2nonc2N)nc2c(-c3cccc(NC(=O)Nc4cccc(Cl)c4)c3)ncc(OCCCN)c21 | 81 nM |
| N#Cc1ccc(C(=O)Nc2cc(-c3cccc(O)c3)cc3[nH]ncc23)cc1 | 478 nM |
| O=C(Nc1c(F)cccc1F)c1cccc(-c2nn3ccccc3c2-c2ccnc(Nc3cccc(-c4cnco4)c3)n2)c1 | 134 nM |
| CCn1c(-c2nonc2N)nc2c(-c3ccccc3)ncc(OCCCNCCCN3CCOCC3)c21 | 38 nM |
| CCn1c(-c2nonc2N)nc2c(-c3cccc(NC(=O)Nc4ccc(C(F)(F)F)cc4)c3)ncc(OCCCN)c21 | 30 nM |
| CCn1c(-c2nonc2N)nc2c(-c3cccc(Cl)c3)ncc(OCCCNCc3cnc(C)nc3N)c21 | 145 nM |
| O=C(Nc1cccc(-c2nn3ncccc3c2-c2ccnc(Nc3ccccc3)n2)c1)c1c(F)cccc1F | 352 nM |

Continued, values first:

| IC50 | SMILES |
| --- | --- |
| 52 nM | CS(=O)(=O)Cc1ccc(Nc2nccc(-c3c(-c4cccc(NC(=O)c5c(F)cccc5F)c4)nn4ccccc34)n2)cc1 |
| 135 nM | NS(=O)(=O)c1cccc(Nc2nc(N[C@@H]3CCNC3)nc3cc[nH]c(=O)c23)c1 |
| 89 nM | Cc1cc(Nc2ncc(C#N)c(Nc3ccccc3C(N)=O)n2)ccc1N1CCN(C)CC1 |
| 76 nM | Cc1cccc(Nc2nc(N[C@@H]3CCCNC3)nc3cc[nH]c(=O)c23)c1 |
| 59 nM | CCn1c(-c2nonc2N)nc2c(-c3cccc(NC(=O)Nc4ccc5c(c4)CCC5)c3)ncc(OCCCN)c21 |
| 24 nM | CC(c1cccc(Nc2nccc(-c3c(-c4cccc(NC(=O)c5c(F)cccc5F)c4)nn4ncccc34)n2)c1)S(C)(=O)=O (stereo not given) |
| 158 nM | CCn1c(-c2nonc2N)nc2c(-c3cccc(NC(=O)NC45CC6CC(CC(C6)C4)C5)c3)ncc(OCCCN)c21 |
| 191 nM | Cn1cccc1C(=O)Nc1cccc(-c2nn3ccccc3c2-c2ccnc(Nc3ccc4c(c3)OCCO4)n2)c1 |
| 84 nM | CCn1c(-c2nonc2N)nc2c(-c3cccc(NC(=O)Nc4ccc(C#N)cc4)c3)ncc(OCCCN)c21 |
| 170 nM | CCn1c(-c2nonc2N)nc2c(-c3cccc(NC(=O)Nc4cccc(C#N)c4)c3)ncc(OCCCN)c21 |
| 51 nM | NS(=O)(=O)c1cccc(Nc2nccc(-c3c(-c4cccc(NC(=O)c5c(F)cccc5F)c4)nn4ccccc34)n2)c1 |
| 89 nM | CCn1c(-c2nonc2N)nc2c(-c3cc4ccccc4s3)ncc(C(=O)N3CCC(N)C3)c21 (stereo not given) |
| 446 nM | O=c1[nH]ccc2nc(N[C@@H]3CCNC3)nc(Nc3cc(Cl)cc(Cl)c3)c12 |
| 201 nM | CCS(=O)(=O)c1ccc(OC)c(Nc2nccc(-c3c(-c4cccc(NC(=O)c5c(F)cccc5F)c4)nn4ncccc34)n2)c1 |
| 967 nM | NCCCNc1nc(Nc2cccc(C(N)=O)c2)c2c(=O)[nH]ccc2n1 |
| 90 nM | CC(c1cccc(Nc2nccc(-c3c(-c4cccc(NC(=O)c5c(F)cccc5F)c4)nn4ccccc34)n2)c1)S(C)(=O)=O (stereo not given) |
| 527 nM | NC[C@H](CC1CCCCC1)NC(=O)c1ccc(-c2ccnc3[nH]ccc23)s1 |
| 361 nM | CNC(=O)c1ccccc1Nc1nc(Nc2ccc(CCN3CCN(C)CC3)cc2)ncc1Cl |
| 21 nM | Cc1[nH]c(/C=C2\C(=O)Nc3ccc(S(=O)(=O)Cc4c(Cl)cccc4Cl)cc32)c(C)c1C(=O)N1CCC[C@@H]1CN1CCCC1 |
| 166 nM | Cc1cccc(Nc2nc(NCCCCN)nc3cc[nH]c(=O)c23)c1 |
| 29 nM | NS(=O)(=O)CCc1cccc(Nc2nccc(-c3c(-c4cccc(NC(=O)c5c(F)cccc5F)c4)nn4ccccc34)n2)c1 |
| 116 nM | NS(=O)(=O)c1cccc(N=Cc2c(O)[nH]c3ccc(S(=O)(=O)Cc4c(Cl)cccc4Cl)cc23)c1 |
| 188 nM | CN1CCN(c2ccc(Nc3ncc(C#N)c(Nc4ccccc4C(N)=O)n3)cc2)CC1 |
| 67 nM | CS(=O)(=O)Cc1ccc(Nc2nccc(-c3c(-c4cccc(NC(=O)C5CCCCC5)c4)nn4ncccc34)n2)cc1 |
| 65 nM | CS(=O)(=O)Cc1ccc(Nc2nccc(-c3c(-c4cccc(C(=O)Nc5c(F)cccc5F)c4)nn4ccccc34)n2)cc1 |
| 612 nM | O=C(Nc1cccc(-c2nn3ccccc3c2-c2ccnc(Nc3cccc(-c4cnco4)c3)n2)c1)C1CCCCC1 |
